Assay results: patent publication US8901301B2, “Pyrrolo[2,3-]pyridine kinase inhibitors” (Plexxikon Inc., priority 2009, dated 2014)

Columns and labels:
[1] = tested on: Raf kinases; test: Biochemical assay, Raf kinases as well as other kinases
Description: Assays for biochemical and cell based activity are known in the art, for example, as described in PCT publication WO 2007/002433, the disclosure of which is hereby incorporated by reference as it relates to such assays. For example, the biochemical activity IC50 values are determined with respect to inhibition of A-Raf kinase activity, B-Raf kinase activity, c-Raf-1 kinase activity, or B-Raf V600E kinase activity, where inhibition of phosphorylation of a peptide substrate is measured as a function of compound concentration. Compounds to be tested are diluted in dimethyl sulfoxide to a concentration of 0.1 mM. These are serially diluted 15 μL into 30 μL of dimethyl sulfoxide seven times in 96 well plates for a total of 8 dilution points, and for each dilution point 1 μL is added to a well of an assay plate. Plates are prepared such that each well in a 384 well plate contains 1 μL of compound in 10 μL volume with 0.1 ng Raf enzyme (i.e. any of A-Raf, B-Raf, c-Raf-1 or B-Raf V600E, Upstate Biotechnology or prepared by methods known to one of skill in the art), 50 mM HEPES, pH 7.0, 50 mM NaCl, 2 mM MgCl2, 1 mM MnCl2, 0.01% Tween-20, 1 mM DTT, and 100 nM biotin-MEK1 as substrate. The reaction is started with addition of 10 μL of 200 μM ATP (i.e. final 100 μM ATP). After incubation of the kinase reaction for 45 minutes at room temperature, 5 μL/well of Stop Solution is added (25 mM Hepes pH 7.5, 100 mM EDTA, 0.01% BSA with donor beads (Streptavidin coated beads, Perkin Elmer), acceptor beads (Protein A coated, Perkin Elmer), and anti phosphor MEK1/2 antibody (CellSignal), each at final concentration 10 μg/mL). The plates are incubated for 3 hours at room temperature and read on Envision reader (Perkin Elmer). Phosphorylation of Mek1 results in binding of the anti-phosphor-MEK1/2 antibody and association of the donor and acceptor beads such that signal correlates with kinase activity. The signal vs. compound concentration is used to determine the IC50.

[2] = tested on: COLO205 cells; test: Cell growth inhibition (Cell Titer Glo), COLO205; assay type: cell-based; conditions: Homo sapiens, COLO 205, 72 h; B-Raf V600E cell line, 3 days
Description: (§1) Compounds are assessed in a variety of cell based assays, employing cells with or without B-Raf V600E mutation, for example cell lines with B-Raf V600E mutation (A375 and COLO205), as well as tumorigenic cell lines with wild-type B-RAF (SW620 and SK-MEL-2). Reagent and assay conditions are as follows:
COLO205 cells growth medium: • RPMI 1640, 2 mM L-glutamine, 1.5 g/L sodium bicarbonate, 4.5 g/L D-glucose, 10 mM HEPES, 1.0 mM sodium pyruvate, 10% fetal bovine serum.
(§2) SK-MEL-2 cells growth medium: • Minimum Eagle essential medium, 2 mM L-glutamine, 1.5 g/L sodium bicarbonate, 0.1 mM non-essential amino acids, 1.0 mM sodium pyruvate, 10% fetal bovine serum. • On day 1, cells are seeded in growth media in 200 μL per well in a 96-well polystyrene tissue culture plate at 2,000 cells per well (A375, COLO205, SK-MEL-2) or 5,000 cells per well for SW620, and incubated at 37° C. and 5% CO2 overnight. • On day 2, compound at 4 mM in dimethyl sulfoxide is serially diluted 1:4 (10 μL with 30 μL dimethyl sulfoxide) seven times for a total of 8 concentration points. For each dilution point a 1 μL aliquot is added to a well containing cells (highest dilution point at 20 μM), with 1 μL of dimethyl sulfoxide as a negative control (each sample at 0.5% dimethyl sulfoxide). The cells are incubated for 3 days at 37° C. in 5% CO2. • On day 5, Cell Titer Glo (Promega) is thawed and added 100 μL to each well and the plate shaken for 1-2 minutes. The plates are incubated for 10 minutes at room temperature, then […] signal is read (e.g. on Safire reader). The measured fluoresence correlates directly with cell number, such that the reading as a function of compound concentration is used to determine the IC50 value.

[3] = tested on: A375 cells; test: Cell growth inhibition (Cell Titer Glo), A375; assay type: cell-based; conditions: Homo sapiens, A-375, 72 h; B-Raf V600E cell line, 3 days
Description: as §1
A375 cells growth medium: • Dulbecco's modified Eagle's medium, 4 mM L-glutamine, 4.5 g/L D-glucose, 10% fetal bovine serum.
as §2

[4] = target: T1, CYP2C9 (Homo sapiens, UniProt P11712); test: CYP inhibition (fluorescent substrate), CYP2C9; assay type: in vitro ADME; conditions: substrate MFC; read-out: Cyp IC50 (μM) 2C9
T1 construct: purchased BD Biosciences
T1 sequence (P11712 whole entry): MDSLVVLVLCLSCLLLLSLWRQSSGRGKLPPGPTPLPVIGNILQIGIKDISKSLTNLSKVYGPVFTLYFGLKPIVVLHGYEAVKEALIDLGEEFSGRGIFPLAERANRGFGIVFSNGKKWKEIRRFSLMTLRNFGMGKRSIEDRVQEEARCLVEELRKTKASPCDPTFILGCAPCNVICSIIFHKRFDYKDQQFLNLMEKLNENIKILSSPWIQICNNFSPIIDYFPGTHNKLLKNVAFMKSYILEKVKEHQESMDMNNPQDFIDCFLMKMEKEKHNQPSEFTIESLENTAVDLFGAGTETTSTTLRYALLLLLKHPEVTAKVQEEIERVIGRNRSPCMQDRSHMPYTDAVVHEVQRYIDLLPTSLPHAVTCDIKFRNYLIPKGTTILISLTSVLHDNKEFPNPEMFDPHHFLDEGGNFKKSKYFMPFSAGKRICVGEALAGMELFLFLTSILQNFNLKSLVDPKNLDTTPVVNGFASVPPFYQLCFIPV
Description: CYP (Cytochrome P450) enzymes are the major drug metabolizing enzymes present in the liver. The inhibition of CYP enzyme activity (IC50) for each of CYP1A2, CYP2C19, CYP2C9, CYP2D6, CYP3A4(BFC) and CYP3A4(BQ) is determined for compounds, where inhibition of metabolism of a known substrate leads to a decrease in the fluorescence of the metabolized product. The fluorescence of the product is monitored as a function of compound concentration. Compounds are dissolved in dimethyl sulfoxide to a concentration of 100 mM. These are diluted 1 μL into 82 μL of acetonitrile. An 11 μL aliquot of this solution is then added to 204 μL of cofactor mix (1.3% NADPH Regeneration system Solution A, 1.04% NADPH Regeneration system Solution B from BD Biosciences, 5% acetonitrile and 0.05% dimethyl sulfoxide). These are then serially diluted 1:1 (160 μL to 160 μL co-factor mix) for a total of 10 points. A 10 μL aliquot of this final mixture is dispensed into 384 well assay plates and incubated for 10 minutes at 37° C. […] Assay plates are incubated at 37° C. (CYP1A2-15 min; CYP2C9-45 min; CYP2C19, 2D6 and 3A4-30 min) and read in a Tecan Safire 2 plate reader (CYP1A2, 2C19 and 3A4 409 ex/460 em; CYP2C9 and 2D6 409 ex/530 em). The signal versus compound concentration is used to determine the IC50. The enzymes and substrates for this assay are obtained from BD Biosciences.

[5] = target: Kit (Homo sapiens, UniProt P10721); test: Biochemical inhibitory activity, other protein kinases: Kit; conditions: for Kinase having IC50 of >1 μM: listing of the kinase means IC50 >1 μM
Kit, sequence (P10721 26-976, species assumed): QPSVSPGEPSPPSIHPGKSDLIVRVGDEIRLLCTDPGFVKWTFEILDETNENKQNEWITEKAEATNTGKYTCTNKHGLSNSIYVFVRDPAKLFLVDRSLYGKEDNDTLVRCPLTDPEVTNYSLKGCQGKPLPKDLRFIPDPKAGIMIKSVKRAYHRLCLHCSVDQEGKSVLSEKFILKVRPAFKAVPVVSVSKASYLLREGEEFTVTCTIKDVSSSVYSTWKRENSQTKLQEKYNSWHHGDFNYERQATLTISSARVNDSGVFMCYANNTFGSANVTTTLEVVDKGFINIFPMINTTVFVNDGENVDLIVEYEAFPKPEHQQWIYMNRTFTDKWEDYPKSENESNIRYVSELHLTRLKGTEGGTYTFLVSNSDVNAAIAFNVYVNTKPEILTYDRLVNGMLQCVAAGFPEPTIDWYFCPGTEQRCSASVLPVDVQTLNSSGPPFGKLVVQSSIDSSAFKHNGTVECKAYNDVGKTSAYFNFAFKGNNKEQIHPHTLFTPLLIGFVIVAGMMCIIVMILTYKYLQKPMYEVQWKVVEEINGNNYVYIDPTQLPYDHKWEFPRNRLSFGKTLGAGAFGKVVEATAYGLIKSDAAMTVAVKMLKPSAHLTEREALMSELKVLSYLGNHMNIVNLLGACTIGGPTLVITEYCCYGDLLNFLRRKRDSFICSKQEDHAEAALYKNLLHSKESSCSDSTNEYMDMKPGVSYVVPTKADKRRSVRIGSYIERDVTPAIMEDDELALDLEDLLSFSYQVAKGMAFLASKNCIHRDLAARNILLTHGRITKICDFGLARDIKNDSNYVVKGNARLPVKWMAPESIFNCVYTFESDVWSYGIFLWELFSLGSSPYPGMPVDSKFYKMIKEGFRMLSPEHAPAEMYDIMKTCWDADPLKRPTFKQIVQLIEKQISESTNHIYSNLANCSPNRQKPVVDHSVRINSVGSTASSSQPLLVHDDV

IC50 [2] [µM] | IC50 [3] [µM] | IC50 [4] [µM] | Kinase having IC50 of >1 μM [5] | Kinase having IC50 of <1 μM ([5]; listing of the kinase means IC50 <1 μM) | SMILES | Selectivity of inhibitory activity, Raf kinases versus other kinases [1]
< 2 | < 2 | > 10 | Kit |  | CCCS(=O)(=O)Nc1cccc(C(=O)c2c[nH]c3ncc(C#N)cc23)c1F [Compound P-0003, propane-1-sulfonic acid [3-(5-cyano-1H-pyrrolo[2,3-b]pyridine-3-carbonyl)-2-fluoro-phenyl]-amide] | selective activity to the Raf kinases
< 1 | < 1 | > 10 | Kit |  | N#Cc1cnc2[nH]cc(C(=O)c3c(F)ccc(NS(=O)(=O)N4CCCC4)c3F)c2c1 [Compound P-0006, pyrrolidine-1-sulfonic acid [3-(5-cyano-1H-pyrrolo[2,3-b]pyridine-3-carbonyl)-2,4-difluoro-phenyl]-amide] | selective activity to the Raf kinases
< 1 | < 1 | > 10 |  | Kit | N#Cc1cnc2[nH]cc(C(=O)c3c(F)ccc(NS(=O)(=O)c4cc(F)ccc4F)c3F)c2c1 [Compound P-0004, N-[3-(5-cyano-1H-pyrrolo[2,3-b]pyridine-3-carbonyl)-2,4-difluoro-phenyl]-2,5-difluoro-benzenesulfonamide] | selective activity to the Raf kinases
< 3 | < 2 | > 10 | Kit |  | CN(C)S(=O)(=O)Nc1ccc(F)c(C(=O)c2c[nH]c3ncc(C#N)cc23)c1F [Compound P-0007, N,N-dimethylamino-sulfonic acid [3-(5-cyano-1H-pyrrolo[2,3-b]pyridine-3-carbonyl)-2,4-difluoro-phenyl]-amide] | selective activity to the Raf kinases
< 1 | < 1 | 5 to 10 | Kit |  | CCCS(=O)(=O)Nc1ccc(F)c(C(=O)c2c[nH]c3ncc(C#N)cc23)c1F [Compound P-0002, propane-1-sulfonic acid [3-(5-cyano-1H-pyrrolo[2,3-b]pyridine-3-carbonyl)-2,4-difluoro-phenyl]-amide] | selective activity to the Raf kinases
< 1 | < 1 | 5 to 10 | Kit |  | N#Cc1cnc2[nH]cc(C(=O)c3c(F)ccc(NS(=O)(=O)c4cccc(F)c4)c3F)c2c1 [Compound P-0005, N-[3-(5-cyano-1H-pyrrolo[2,3-b]pyridine-3-carbonyl)-2,4-difluoro-phenyl]-3-fluoro-benzenesulfonamide] | selective activity to the Raf kinases
< 1 | < 1 | 5 to 10 | Kit |  | CCCS(=O)(=O)Nc1ccc(F)c(C(=O)c2c[nH]c3ncc(-c4cnc(OC)nc4)cc23)c1F [Compound P-0001, propane-1-sulfonic acid {2,4-difluoro-3-[5-(2-methoxy-pyrimidin-5-yl)-1H-pyrrolo[2,3-b]pyridine-3-carbonyl]-phenyl}-amide] | selective activity to the Raf kinases
